The record followed here is ChEMBL document CHEMBL5303573, “Mapping human microbiome drug metabolism by gut bacteria and their genes” (Nature, 2019).

Series [1] can be described thus: The drug is tested on Bacteroides dorei strain: DSM17855 for biotransformation. The drug concentrations were measured before and after a 12-h incubation by liquid-chromatography-coupled mass spectrometry (LC–MS). Conditions: phocaeicola dorei, 2 µM.
The nature of series [2]: The drug is tested on Clostridium asparagiforme strain: DSM15981 for biotransformation. The drug concentrations were measured before and after a 12-h incubation by liquid-chromatography-coupled mass spectrometry (LC–MS). Type of series: ADME. More on the design: dose 2 uM, timepoint 0 vs 12 hours. Conditions: enterocloster asparagiformis, 2 µM.
For series [3] the following is noted: bacteroides thetaiotaomicron, 12 h, 2 µM.
Description: The drug is tested on Bacteroides thetaiotaomicron strain: 7330 for biotransformation. The drug concentrations were measured before and after a 12-h incubation by liquid-chromatography-coupled mass spectrometry (LC–MS)
The nature of series [4]: The drug is tested on Clostridium symbiosum strain: ATCC14940 for biotransformation. The drug concentrations were measured before and after a 12-h incubation by liquid-chromatography-coupled mass spectrometry (LC–MS). Conditions: 2 µM.
The conditions of series [5]: bacteroides fragilis, 12 h, 2 µM.
Description: The drug is tested on Bacteroides fragilis strain: 3397 (T10) for biotransformation. The drug concentrations were measured before and after a 12-h incubation by liquid-chromatography-coupled mass spectrometry (LC–MS)
The conditions of series [6]: anaerostipes sp., 12 h, 2 µM.
Description: The drug is tested on Anaerostipes sp. strain: fecal isolate for biotransformation. The drug concentrations were measured before and after a 12-h incubation by liquid-chromatography-coupled mass spectrometry (LC–MS)
Series [7] in a line: The drug is tested on Bacteroides pectinophilus strain: ATCC43243 for biotransformation. The drug concentrations were measured before and after a 12-h incubation by liquid-chromatography-coupled mass spectrometry (LC–MS). Conditions: 2 µM.
For series [8] the following is noted: akkermansia muciniphila, 12 h, 2 µM.
Description: The drug is tested on Akkermansia muciniphila strain: ATCC BAA-835 for biotransformation. The drug concentrations were measured before and after a 12-h incubation by liquid-chromatography-coupled mass spectrometry (LC–MS)
The conditions of series [9]: bacteroides thetaiotaomicron, 12 h, 2 µM. This is another data set of the same source.
Description: The drug is tested on Bacteroides thetaiotaomicron strain: VPI-5482 for biotransformation. The drug concentrations were measured before and after a 12-h incubation by liquid-chromatography-coupled mass spectrometry (LC–MS)
Series [10] can be described thus: The drug is tested on Bifidobacterium ruminantium strain: fecal isolate for biotransformation. The drug concentrations were measured before and after a 12-h incubation by liquid-chromatography-coupled mass spectrometry (LC–MS). Conditions: 2 µM.
Series [11] can be described thus: The drug is tested on Eggerthella lenta strain: ATCC25559 for biotransformation. The drug concentrations were measured before and after a 12-h incubation by liquid-chromatography-coupled mass spectrometry (LC–MS). Conditions: 2 µM.
For series [12] the following is noted: roseburia intestinalis, 12 h, 2 µM.
Description: The drug is tested on Roseburia intestinalis strain: L1-82 for biotransformation. The drug concentrations were measured before and after a 12-h incubation by liquid-chromatography-coupled mass spectrometry (LC–MS)
The conditions of series [13]: bacteroides eggerthii, 12 h, 2 µM.
Description: The drug is tested on Bacteroides eggerthii strain: DSM20697 for biotransformation. The drug concentrations were measured before and after a 12-h incubation by liquid-chromatography-coupled mass spectrometry (LC–MS)
Series [14] can be described thus: The drug is tested on Bacteroides vulgatus strain: ATCC8482 for biotransformation. The drug concentrations were measured before and after a 12-h incubation by liquid-chromatography-coupled mass spectrometry (LC–MS). Conditions: phocaeicola vulgatus, 2 µM.
Series [15] is described as follows: The drug is tested on Bacteroides uniformis strain: ATCC8492 for biotransformation. The drug concentrations were measured before and after a 12-h incubation by liquid-chromatography-coupled mass spectrometry (LC–MS). Conditions: 2 µM.
The conditions of series [16]: segatella copri, 12 h, 2 µM.
Description: The drug is tested on Prevotella copri strain: DSM18205 for biotransformation. The drug concentrations were measured before and after a 12-h incubation by liquid-chromatography-coupled mass spectrometry (LC–MS)
For series [17] the following is noted: bacteroides fragilis, 12 h, 2 µM. The source holds these as a separate data set.
Description: The drug is tested on Bacteroides fragilis strain: DS-208 for biotransformation. The drug concentrations were measured before and after a 12-h incubation by liquid-chromatography-coupled mass spectrometry (LC–MS)
The nature of series [18]: The drug is tested on Ruminococcus lactaris strain: ATCC29176 for biotransformation. The drug concentrations were measured before and after a 12-h incubation by liquid-chromatography-coupled mass spectrometry (LC–MS). Conditions: 2 µM.
Series [19] is described as follows: The drug is tested on Alistipes indistinctus strain: DSM22520 for biotransformation. The drug concentrations were measured before and after a 12-h incubation by liquid-chromatography-coupled mass spectrometry (LC–MS). Conditions: 2 µM.
The conditions of series [20]: bacteroides intestinalis, 12 h, 2 µM.
Description: The drug is tested on Bacteroides intestinalis strain: DSM17393 for biotransformation. The drug concentrations were measured before and after a 12-h incubation by liquid-chromatography-coupled mass spectrometry (LC–MS)

SMILES strings stand for the structures.

Turning to `C#C[C@]1(O)CC[C@H]2[C@@H]3CCC4=Cc5oncc5C[C@]4(C)[C@H]3CC[C@@]21C` [DANAZOL], the “Bacterial Biotransformation” value in series [1], in series [2], in [3], in series [4], in [5] and in series [6] was “Compound metabolized” each time. Moreover, the “Bacterial Biotransformation” value in series [7], in [8], in series [9], in [10], in series [11] and in [12] was “Compound metabolized” each time. Further, the “Bacterial Biotransformation” value in [13], in series [14], in [15], in [16], in series [17] and in [18] was “Compound metabolized” in each case. The “Bacterial Biotransformation” value in series [19] and in series [20] was “Compound metabolized” throughout.
On to `CC(=O)OCC(=O)[C@@]12N=C(C)O[C@@H]1C[C@H]1[C@@H]3CCC4=CC(=O)C=C[C@]4(C)[C@H]3[C@@H](O)C[C@@]12C` [DEFLAZACORT], for which the “Bacterial Biotransformation” value in series [1], in [2], in [3], in series [4], in [5] and in series [6] was “Compound metabolized” throughout. In addition, the “Bacterial Biotransformation” value in series [7], in [8], in series [9], in series [10], in series [11] and in [12] was “Compound metabolized” each time. The “Bacterial Biotransformation” value in series [13], in series [14], in series [15], in [16], in series [17] and in [18] was “Compound metabolized” in each case. Also, the “Bacterial Biotransformation” value in [19] and in series [20] was “Compound metabolized” throughout.
Take `CC(=O)Nc1ccc(OC(C)=O)cc1` [DIACETAMATE]: the “Bacterial Biotransformation” value in [1], in series [2], in series [3], in series [4], in series [5] and in series [6] was “Compound metabolized” in each case. The “Bacterial Biotransformation” value in series [7], in series [8], in series [9], in [10], in series [11] and in [12] was “Compound metabolized” throughout. The “Bacterial Biotransformation” value in series [13], in series [14], in [15], in series [16], in series [17] and in series [18] was “Compound metabolized” each time. Also, the “Bacterial Biotransformation” value in series [19] and in [20] was “Compound metabolized” throughout.
`CCN(CC)C(=O)/C(C#N)=C/c1cc(O)c(O)c([N+](=O)[O-])c1` [ENTACAPONE]: the “Bacterial Biotransformation” value in series [1], in [2], in [3], in series [4], in series [5] and in series [6] was “Compound metabolized” in each case. Moreover, the “Bacterial Biotransformation” value in [7], in [8], in series [9], in [10], in [11] and in series [12] was “Compound metabolized” each time. In addition, the “Bacterial Biotransformation” value in series [13], in series [14], in series [15], in [16], in [17] and in series [18] was “Compound metabolized” each time. Further, the “Bacterial Biotransformation” value in series [19] and in [20] was “Compound metabolized” throughout.
Consider `CN1C[C@H](C(=O)N[C@]2(C)O[C@@]3(O)[C@@H]4CCCN4C(=O)[C@H](Cc4ccccc4)N3C2=O)C=C2c3cccc4[nH]cc(c34)C[C@H]21.CN1C[C@H](C(=O)N[C@]2(C)O[C@@]3(O)[C@@H]4CCCN4C(=O)[C@H](Cc4ccccc4)N3C2=O)C=C2c3cccc4[nH]cc(c34)C[C@H]21.O=C(O)C(O)C(O)C(=O)O` [ERGOTAMINE TARTRATE], for which the “Bacterial Biotransformation” value in series [1], in series [2], in series [3], in [4], in series [5] and in [6] was “Compound metabolized” throughout. Besides, the “Bacterial Biotransformation” value is reported as “Compound metabolized” in series [7]; “Compound metabolized” in [8]; “Compound metabolized” in [9]; “Compound metabolized” in [10]; “Compound NOT metabolized” in series [11]; “Compound NOT metabolized” in [12]. In addition, the “Bacterial Biotransformation” value in series [13], in series [14], in series [15], in series [16], in [17] and in series [18] was “Compound metabolized” each time. Besides, the “Bacterial Biotransformation” value in [19] is “Compound NOT metabolized”; in [20] it was “Compound metabolized”.
Consider `CCOc1ccc2nc(S(N)(=O)=O)sc2c1` [ETHOXZOLAMIDE], for which the “Bacterial Biotransformation” value is on record as “Compound NOT metabolized” in series [1]; “Compound metabolized” in [2]; “Compound metabolized” in series [3]; “Compound metabolized” in series [4]; “Compound metabolized” in series [5]; “Compound metabolized” in series [6]. For the same molecule, the “Bacterial Biotransformation” value in series [7], in series [8], in series [9], in series [10], in series [11] and in [12] was “Compound metabolized” in each case. Also, the “Bacterial Biotransformation” value in series [13] was “Compound metabolized”; in series [14] it was “Compound NOT metabolized”; in [15], “Compound metabolized”; in [16], “Compound metabolized”; in series [17], “Compound NOT metabolized”; in [18], “Compound metabolized”. Also, the “Bacterial Biotransformation” value in series [19] and in [20] was “Compound metabolized” in each case.
